Broadly, the IC50 is the point on the concentration scale where inhibition reaches its midpoint.

In one test the target is JAK1 (Homo sapiens (Human), UniProt P23458). Nature of the test: JAK1 inhibitory activity, mobility shift assay, 1 mM ATP. The class given is biochemical. Conditions: 1 mM ATP; Table 7. Here is the method: (§1) The JAK1 inhibitory activity and the JAK2 inhibitory activity of the amide compounds provided in the above examples were tested by the method below.
(§2) Specific steps are described below. • 1. A 1× Kinase buffer was formulated. • 2. Concentration gradients of the compound were formulated: a test compound with an initial concentration of 10000 nM (JAK1) or 30000 nM (JAK2) was diluted in a 384-well plate to a 100% DMSO solution with a 100-fold final concentration, wherein the compound was diluted by a fold of 3 to 10 concentrations. 250 nL of the compound with the 100-fold final concentration was transferred with a dispenser Echo 550 to the target plate. • 3. A kinase solution with a 2.5-fold final concentration was prepared with the 1× Kinase buffer. • 4. […] The plate was centrifuged at 1000 rpm for 30 s, shaken and uniformly mixed, and incubated for 10 min at room temperature. • 6. A mixed solution of ATP (the final concentration of ATP=1 mM) and Kinase substrate with a 5/3-fold final concentration was formulated with the 1× Kinase buffer. • 7. 15 μL of the mixed solution of ATP and the substrate with the 5/3-fold final concentration was added to initiate the reaction. • 8. The 384-well plate was centrifuged at 1000 rpm for 30 s, shaken and uniformly mixed, and incubated for respective times at room temperature. • 9. The kinase reaction was stopped by adding 30 μL of a detection termination solution, and the plate was centrifuged at 1000 rpm for 30 s and shaken and uniformly mixed. • 10. The conversion rate was read with Caliper EZ Reader and the half maximal inhibitory concentration (IC50) was calculated.

In a further test the target is JAK2 (Homo sapiens (Human), UniProt O60674). In words: JAK2 inhibitory activity, mobility shift assay, 1 mM ATP. Type of test: biochemical. Conditions: Table 7. Here is the method: as §1, §2
JAK2, sequence (O60674 826-1132): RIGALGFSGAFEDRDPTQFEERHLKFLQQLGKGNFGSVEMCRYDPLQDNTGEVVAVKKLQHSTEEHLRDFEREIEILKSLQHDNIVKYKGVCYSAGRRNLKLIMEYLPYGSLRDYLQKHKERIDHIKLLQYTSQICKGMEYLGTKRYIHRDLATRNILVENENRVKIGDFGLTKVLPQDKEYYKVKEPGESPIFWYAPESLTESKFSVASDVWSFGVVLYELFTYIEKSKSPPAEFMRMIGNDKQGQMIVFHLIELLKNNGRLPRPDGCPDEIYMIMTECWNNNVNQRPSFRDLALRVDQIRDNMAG

JAK1, sequence (P23458 850-1154): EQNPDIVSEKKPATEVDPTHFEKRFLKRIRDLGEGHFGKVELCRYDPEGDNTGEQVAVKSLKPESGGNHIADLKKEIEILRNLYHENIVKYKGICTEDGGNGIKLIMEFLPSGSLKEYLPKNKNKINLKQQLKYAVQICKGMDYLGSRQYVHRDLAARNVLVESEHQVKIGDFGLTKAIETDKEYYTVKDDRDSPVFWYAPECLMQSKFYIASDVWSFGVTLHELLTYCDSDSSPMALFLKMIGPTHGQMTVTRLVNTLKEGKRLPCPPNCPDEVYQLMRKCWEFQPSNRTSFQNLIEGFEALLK

As to `COc1nn(C)cc1Nc1ncc(C)c(-c2c[nH]c3c(NC(=O)[C@H]4CC(F)(F)CN4C4CCN(C)CC4)cccc23)n1` [Example 16, (R)-4,4-difluoro-N-(3-(2-((3-methoxy-1-methyl-1H-pyrazol-4-yl)amino)-5-methylpyrimidin-4-yl)-1H-indol-7-yl)-1-(1-methylpiperidin-4-yl)pyrrolidine-2-carboxamide], the IC50 at JAK1 was determined as 40 nM; at JAK2, 3340 nM.
Turning to `COc1nn(C)cc1Nc1ncc(C)c(-c2c[nH]c3c(NC(=O)[C@H]4C[C@H](F)CN4C4CCN(C)CC4)cccc23)n1` [Example 14, (2R,4S)-4-fluoro-N-(3-(2-((3-methoxy-1-methyl-1H-pyrazol-4-yl)amino)-5-methylpyrimidin-4-yl)-1H-indol-7-yl)-1-(1-methylpiperidin-4-yl)pyrrolidine-2-carboxamide], the results for the IC50 on JAK1 and at JAK2 were 41 nM and 6620 nM, respectively.
For the compound `COc1nn(C)cc1Nc1ncc(F)c(-c2c[nH]c3c(NC(=O)[C@H]4C[C@H](OC)CN4C4CCNCC4)cccc23)n1` [Example 9, (2R,4S)-N-(3-(5-fluoro-2-((3-methoxy-1-methyl-1H-pyrazol-4-yl)amino)pyrimidin-4-yl)-1H-indol-7-yl)-4-methoxy-1-(piperidin-4-yl)pyrrolidine-2-carboxamide], the 50% inhibitory concentration (IC50) on JAK1 came out at 51 nM; on JAK2 it was 5000 nM.
Consider `COc1nn(C)cc1Nc1ncc(F)c(-c2c[nH]c3c(NC(=O)[C@H]4CCCN4[C@H]4CCNC4)cccc23)n1` [Example 23, (2R,3′S)-N-(3-(5-fluoro-2-((3-methoxy-1-methyl-1H-pyrazol-4-yl)amino)pyrimidin-4-yl)-1H-indol-7-yl)-[1,3′-bipyrrolidine]-2-carboxamide], for which the IC50 was 59 nM at JAK1 and 5370 nM at JAK2.
On to `COc1nn(C)cc1Nc1ncc(F)c(-c2c[nH]c3c(NC(=O)[C@H]4CCCN4[C@@H]4CCNC4)cccc23)n1` [Example 22, (2R,3′R)-N-(3-(5-fluoro-2-((3-methoxy-1-methyl-1H-pyrazol-4-yl)amino)pyrimidin-4-yl)-1H-indol-7-yl)-[1,3′-bipyrrolidine]-2-carboxamide], for which the values for the 50% inhibitory concentration (IC50) at JAK1 and at JAK2 were 46 nM and 7280 nM, respectively.
On to `COc1nn(C)cc1Nc1ncc(F)c(-c2c[nH]c3c(NC(=O)[C@H]4CCCN4C4CCN(C)CC4)cccc23)n1` [Example 10, (R)-N-(3-(5-fluoro-2-((3-methoxy-1-methyl-1H-pyrazol-4-yl)amino)pyrimidin-4-yl)-1H-indol-7-yl)-1-(1-methylpiperidin-4-yl)pyrrolidine-2-carboxamide], for which the IC50 on JAK1 is 104 nM; at JAK2, 14600 nM.
Consider `COc1nn(C)cc1Nc1ncc(C)c(-c2c[nH]c3c(NC(=O)[C@H]4CCCN4C4CCN(C)CC4)cccc23)n1` [Example 11, (R)-N-(3-(2-((3-methoxy-1-methyl-1H-pyrazol-4-yl)amino)-5-methylpyrimidin-4-yl)-1H-indol-7-yl)-1-(1-methylpiperidin-4-yl)pyrrolidine-2-carboxamide], for which the results for the IC50 on JAK1 and at JAK2 were 69 nM and 12100 nM, respectively.
Consider `COc1nn(C)cc1Nc1nccc(-c2c[nH]c3c(NC(=O)[C@H]4C[C@H](F)CN4[C@H]4CCN(C)C4)cccc23)n1` (single isomer, unassigned) [Example 21], for which the half-maximal inhibitory concentration (IC50) is 262 nM at JAK1 and above 30000 nM on JAK2.
`CCO[C@H]1C[C@H](C(=O)Nc2cccc3c(-c4nc(Nc5cn(C)nc5OC)ncc4C)c[nH]c23)N(C2CCN(C)CC2)C1` [Example 12, (2R,4S)-4-ethoxy-N-(3-(2-((3-methoxy-1-methyl-1H-pyrazol-4-yl)amino)-5-methylpyrimidin-4-yl)-1H-indol-7-yl)-1-(1-methylpiperidin-4-yl)pyrrolidine-2-carboxamide]: the IC50 on JAK1 was determined as 103 nM; at JAK2, 12000 nM.
Take `COc1nn(C)cc1Nc1ncc(C)c(-c2c[nH]c3c(NC(=O)[C@H]4CC(F)(F)CN4[C@H]4CCN(C)C4)cccc23)n1` [Example 33, (2R,3′S)-4,4-difluoro-N-(3-(2-((3-methoxy-1-methyl-1H-pyrazol-4-yl)amino)-5-methylpyrimidin-4-yl)-1H-indol-7-yl)-1′-methyl-[1,3′-bipyrrolidine]-2-carboxamide]: the half-maximal inhibitory concentration (IC50) at JAK1 is 39 nM; at JAK2 it was 3430 nM.
Consider `COc1nn(C)cc1Nc1nccc(-c2c[nH]c3c(NC(=O)[C@H]4CC(F)(F)CN4C4CCN(C)CC4)cccc23)n1` [Example 17, (R)-4,4-difluoro-N-(3-(2-((3-methoxy-1-methyl-1H-pyrazol-4-yl)amino)pyrimidin-4-yl)-1H-indol-7-yl)-1-(1-methylpiperidin-4-yl)pyrrolidine-2-carboxamide], for which the values for the IC50 on JAK1 and at JAK2 were 216 nM and 10500 nM, respectively.
For `COc1nn(C)cc1Nc1nccc(-c2c[nH]c3c(NC(=O)[C@H]4C[C@H](F)CN4[C@@H]4CCN(C)C4)cccc23)n1` (single isomer, unassigned) [Example 20], the concentration for half-maximal inhibition (IC50) at JAK1 is 120 nM; on JAK2, 21500 nM.
As to `COc1nn(C)cc1Nc1ncc(C)c(-c2c[nH]c3c(NC(=O)[C@H]4CCCN4[C@H]4CCN(C)C4)cccc23)n1` [Example 29, (2R,3′S)-N-(3-(2-((3-methoxy-1-methyl-1H-pyrazol-4-yl)amino)-5-methylpyrimidin-4-yl)-1H-indol-7-yl)-1′-methyl-[1,3′-bipyrrolidine]-2-carboxamide], the values for the IC50 at JAK1 and at JAK2 were 67 nM and 13400 nM, respectively.
For the compound `COc1nn(C)cc1Nc1ncc(F)c(-c2c[nH]c3c(NC(=O)[C@H]4C[C@H](F)CN4[C@H]4CCN(C)C4)cccc23)n1` [Example 39, (2R,3′S,4S)-4-fluoro-N-(3-(5-fluoro-2-((3-methoxy-1-methyl-1H-pyrazol-4-yl)amino)pyrimidin-4-yl)-1H-indol-7-yl)-1′-methyl-[1,3′-bipyrrolidine]-2-carboxamide], the 50% inhibitory concentration (IC50) on JAK1 turned out to be 50 nM; at JAK2 it was 4850 nM.
For `COc1nn(C)cc1Nc1ncc(F)c(-c2c[nH]c3c(NC(=O)[C@H]4CCCN4[C@@H]4CCN(C)C4)cccc23)n1` [Example 24, (2R,3′R)-N-(3-(5-fluoro-2-((3-methoxy-1-methyl-1H-pyrazol-4-yl)amino)pyrimidin-4-yl)-1H-indol-7-yl)-1′-methyl-[1,3′-bipyrrolidine]-2-carboxamide], the concentration for half-maximal inhibition (IC50) on JAK1 was determined as 40 nM; at JAK2, 14600 nM.
With `COc1nn(C)cc1Nc1ncc(F)c(-c2c[nH]c3c(NC(=O)[C@H]4CC(F)(F)CN4[C@H]4CCN(C)C4)cccc23)n1` [Example 27, (2R,3′S)-4,4-difluoro-N-(3-(5-fluoro-2-((3-methoxy-1-methyl-1H-pyrazol-4-yl)amino)pyrimidin-4-yl)-1H-indol-7-yl)-1′-methyl-[1,3′-bipyrrolidine]-2-carboxamide], the IC50 at JAK1 came to 60 nM; on JAK2 it was 4400 nM.
For `COc1nn(C)cc1Nc1ncc(C)c(-c2c[nH]c3c(NC(=O)[C@@H]4CCCN4S(C)(=O)=O)cccc23)n1` [Example 3, (S)-N-(3-(2-((3-methoxy-1-methyl-1H-pyrazol-4-yl)amino)-5-methylpyrimidin-4-yl)-1H-indol-7-yl)-1-(methanesulfonyl)pyrrolidine-2-carboxamide], the values for the IC50 at JAK1 and on JAK2 were 70 nM and 2210 nM, respectively.
Regarding `COc1nn(C)cc1Nc1nccc(-c2c[nH]c3c(NC(=O)[C@H]4CC(F)(F)CN4[C@H]4CCN(C)C4)cccc23)n1` [Example 37, (2R,3′S)-4,4-difluoro-N-(3-(2-((3-methoxy-1-methyl-1H-pyrazol-4-yl)amino)pyrimidin-4-yl)-1H-indol-7-yl)-1′-methyl-[1,3′-bipyrrolidine]-2-carboxamide], the IC50 was determined as 216 nM at JAK1 and 10800 nM at JAK2.
With `COc1nn(C)cc1Nc1nccc(-c2c[nH]c3c(NC(=O)[C@H]4CC(F)(F)CN4[C@@H]4CCN(C)C4)cccc23)n1` [Example 36, (2R,3′R)-4,4-difluoro-N-(3-(2-((3-methoxy-1-methyl-1H-pyrazol-4-yl)amino)pyrimidin-4-yl)-1H-indol-7-yl)-1′-methyl-[1,3′-bipyrrolidine]-2-carboxamide], the IC50 at JAK1 was found to be 91 nM; at JAK2, 12000 nM.
For `COc1nn(C)cc1Nc1ncc(Cl)c(-c2c[nH]c3c(NC(=O)[C@H]4CCCN4C4CCN(C)CC4)cccc23)n1` [Example 15, (R)-N-(3-(5-chloro-2-((3-methoxy-1-methyl-1H-pyrazol-4-yl)amino)pyrimidin-4-yl)-1H-indol-7-yl)-1-(1-methylpiperidin-4-yl)pyrrolidine-2-carboxamide], the IC50 at JAK1 amounted to 27 nM; at JAK2 it was 3640 nM.
Taken in the same sequence, the figures for `COc1nn(C)cc1Nc1ncc(F)c(-c2c[nH]c3c(NC(=O)[C@H]4C[C@H](F)CN4C4CCNCC4)cccc23)n1` [Example 6, (2R,4S)-4-fluoro-N-(3-(5-fluoro-2-((3-methoxy-1-methyl-1H-pyrazol-4-yl)amino)pyrimidin-4-yl)-1H-indol-7-yl)-1-(piperidin-4-yl)pyrrolidine-2-carboxamide] were 68 nM and 4000 nM.

The record behind these values is patent publication US20230416237A1, “AMIDE COMPOUND, PHARMACEUTICAL COMPOSITION AND USE THEREOF” (SHENZHEN BO LI JIAN MEDICINE CO., LTD., priority 2020, published 2023).
